According to paper PMC9393165 (Scientific Reports, 2022):
Marks after values point to notes of the source that are not given here.

Assay: Proportions of kidney transplant recipients with subtherapeutic or supratherapeutic tacrolimus trough concentration
Format: in vivo, human
Description: All participants received oral, immediate-release tacrolimus (Prograf®; Astellas, Kerry, Ireland). According to Siriraj Hospital protocol, the initial dose (0.05 mg/kg every 12 h) of tacrolimus was started 2 days before KT (day − 2) and subsequently adjusted after KT based on efficacy and toxicity and to maintain morning trough concentrations of 7 to 10 ng/mL in standard risk patients and 10 to 12 ng/mL in high-risk patients during the first week after transplantation. Participants also received either mycophenolate mofetil (Cellcept®; F Hoffmann-La Roche Ltd, Basel, Switzerland or Immucept®; Intas Pharmaceuticals Ltd., Gujarat, India) or mycophenolate sodium (Myfortic®; Novartis Pharma Stein, Switzerland for Novartis AG, Basel, Switzerland) at the dosage equivalent to 2 g/day of mycophenolate mofetil. A tapered corticosteroid regimen was administered consisting of an intravenous bolus of 500 mg of methylprednisolone (Solu-medrol®; Novartis Pharma Stein, Switzerland for Novartis AG, Basel, Switzerland) on day 0, 250 mg on day 1, 125 mg on day 2 followed by 40 mg/day of prednisolone on day 4 after KT. The subsequent prednisolone doses were gradually tapered thereafter. Induction therapy with basiliximab (Simulect®; Novartis Pharma AG, Basel, Switzerland) was allowed.
On day 7 post-KT, after the tacrolimus dosage was stable for at least 48 h, venous blood samples (5 mL) were collected at pre-dose and 1, 2, 4, 6, 8 and 12 h after the morning dose of tacrolimus. Samples were collected in EDTA tubes and stored at 4 degrees Celsius until analysis. Whole blood tacrolimus concentrations were determined within the same day of blood collection by using a chemiluminescent microparticle immunoassay method with […] system® i2000 (Abbott, Abbott Diagnostic, USA). The method was linear in the concentration range up to 30 ng/mL, the limits of quantification were 0.8 ng/mL, and the coefficient of variation of within run precision and between run precision were less than 10%. Mean recovery was 100 ± 10% according to the manufacturer’s information.
The primary outcome measure was AUC/D at day 7 post-KT. […]

[1] = day 1 post-transplantation, CYP3A5 expressers, diltiazem (n = 11)
[2] = day 1 post-transplantation, CYP3A5 expressers, placebo (n = 12)
[3] = day 1 post-transplantation, CYP3A5 non-expressers, diltiazem (n = 9)
[4] = day 1 post-transplantation, CYP3A5 non-expressers, placebo (n = 8)
[5] = day 1 post-transplantation, total (n = 40)
[6] = day 3 post-transplantation, CYP3A5 expressers, diltiazem (n = 11)
[7] = day 3 post-transplantation, CYP3A5 expressers, placebo (n = 12)
[8] = day 3 post-transplantation, CYP3A5 non-expressers, diltiazem (n = 9)
[9] = day 3 post-transplantation, CYP3A5 non-expressers, placebo (n = 8)
[10] = day 3 post-transplantation, total (n = 40)
[11] = day 5 post-transplantation, CYP3A5 expressers, diltiazem (n = 11)
[12] = day 5 post-transplantation, CYP3A5 expressers, placebo (n = 12)
[13] = day 5 post-transplantation, CYP3A5 non-expressers, diltiazem (n = 9)
[14] = day 5 post-transplantation, CYP3A5 non-expressers, placebo (n = 8)
[15] = day 5 post-transplantation, total (n = 40)
[16] = day 7 post-transplantation, CYP3A5 expressers, diltiazem (n = 11)
[17] = day 7 post-transplantation, CYP3A5 expressers, placebo (n = 12)
[18] = day 7 post-transplantation, CYP3A5 non-expressers, diltiazem (n = 9)
[19] = day 7 post-transplantation, CYP3A5 non-expressers, placebo (n = 8)
[20] = day 7 post-transplantation, total (n = 40)

Trough concentration higher than 15 ng/mL [1]: 1 (9.1) n (%) | Trough concentration lower than 5 ng/mL [1]: 0 (0) n (%) | Trough concentration lower than the target range [1]: 1 (9.1) n (%) | Trough concentration higher than 15 ng/mL [2]: 0 (0) n (%) | Trough concentration lower than 5 ng/mL [2]: 4 (33.3) n (%) | Trough concentration lower than the target range [2]: 7 (58.3) n (%) | Trough concentration higher than 15 ng/mL [3]: 3 (33.3) n (%) | Trough concentration lower than 5 ng/mL [3]: 1 (11.1) n (%) | Trough concentration lower than the target range [3]: 2 (22.2) n (%) | Trough concentration higher than 15 ng/mL [4]: 3 (37.5) n (%) | Trough concentration lower than 5 ng/mL [4]: 1 (12.5) n (%) | Trough concentration lower than the target range [4]: 2 (25.0) n (%) | Trough concentration higher than 15 ng/mL [5]: 7 (17.5) n (%) | Trough concentration lower than 5 ng/mL [5]: 6 (15.0) n (%) | Trough concentration lower than the target range [5]: 12 (30.0) n (%) | Trough concentration lower than 5 ng/mL (day 3 post-transplantation, CYP3A5 expressers, diltiazem (EXdtz, n = 11)): 1 (9.1) n (%) | Trough concentration lower than 5 ng/mL (day 3 post-transplantation, CYP3A5 expressers, diltiazem (EXdtz, n = 11), listed as tacrolimus): one | Trough concentration higher than 15 ng/mL [6]: 0 (0) n (%) | Trough concentration lower than the target range [6]: 2 (18.2)^b n (%) | Trough concentration lower than 5 ng/mL (day 3 post-transplantation, CYP3A5 expressers, placebo (EXplb, n = 12)): 4 (33.3) n (%) | Trough concentration lower than 5 ng/mL (day 3 post-transplantation, CYP3A5 expressers, placebo (EXplb, n = 12), listed as tacrolimus): four | Trough concentration higher than 15 ng/mL [7]: 0 (0) n (%) | Trough concentration lower than the target range [7]: 8 (66.7) n (%) | Trough concentration lower than 5 ng/mL (day 3 post-transplantation, CYP3A5 non-expressers, diltiazem (NEdtz, n = 9)): 0 (0) n (%) | Trough concentration lower than 5 ng/mL (day 3 post-transplantation, CYP3A5 non-expressers, diltiazem (NEdtz, n = 9), listed as tacrolimus): none | Trough concentration higher than 15 ng/mL [8]: 0 (0) n (%) | Trough concentration lower than the target range [8]: 0 (0)^b n (%) | Trough concentration lower than 5 ng/mL (day 3 post-transplantation, CYP3A5 non-expressers, placebo (NEplb, n = 8)): 0 (0) n (%) | Trough concentration lower than 5 ng/mL (day 3 post-transplantation, CYP3A5 non-expressers, placebo (NEplb, n = 8), listed as tacrolimus): none | Trough concentration higher than 15 ng/mL [9]: 1 (12.5) n (%) | Trough concentration lower than the target range [9]: 0 (0)^b n (%) | Trough concentration higher than 15 ng/mL [10]: 1 (2.5) n (%) | Trough concentration lower than 5 ng/mL [10]: 5 (12.5) n (%) | Trough concentration lower than the target range [10]: 10 (25.0) n (%) | Trough concentration higher than 15 ng/mL [11]: 0 (0) n (%) | Trough concentration lower than 5 ng/mL [11]: 1 (9.1) n (%) | Trough concentration lower than the target range [11]: 7 (63.6) n (%) | Trough concentration higher than 15 ng/mL [12]: 0 (0) n (%) | Trough concentration lower than 5 ng/mL [12]: 1 (8.3) n (%) | Trough concentration lower than the target range [12]: 7 (58.3) n (%) | Trough concentration higher than 15 ng/mL [13]: 0 (0) n (%) | Trough concentration lower than 5 ng/mL [13]: 0 (0) n (%) | Trough concentration lower than the target range [13]: 2 (22.2) n (%) | Trough concentration higher than 15 ng/mL [14]: 0 (0) n (%) | Trough concentration lower than 5 ng/mL [14]: 2 (25.0) n (%) | Trough concentration lower than the target range [14]: 2 (25.0) n (%) | Trough concentration higher than 15 ng/mL [15]: 0 (0) n (%) | Trough concentration lower than 5 ng/mL [15]: 4 (10.0) n (%) | Trough concentration lower than the target range [15]: 18 (45.0) n (%) | Trough concentration higher than 15 ng/mL [16]: 0 (0) n (%) | Trough concentration lower than 5 ng/mL [16]: 0 (0) n (%) | Trough concentration lower than the target range [16]: 6 (54.5) n (%) | Trough concentration higher than 15 ng/mL [17]: 0 (0) n (%) | Trough concentration lower than 5 ng/mL [17]: 0 (0) n (%) | Trough concentration lower than the target range [17]: 1 (8.3) n (%) | Trough concentration higher than 15 ng/mL [18]: 0 (0) n (%) | Trough concentration lower than 5 ng/mL [18]: 0 (0) n (%) | Trough concentration lower than the target range [18]: 3 (33.3) n (%) | Trough concentration higher than 15 ng/mL [19]: 0 (0) n (%) | Trough concentration lower than 5 ng/mL [19]: 0 (0) n (%) | Trough concentration lower than the target range [19]: 2 (25.0) n (%) | Trough concentration higher than 15 ng/mL [20]: 0 (0) n (%) | Trough concentration lower than 5 ng/mL [20]: 0 (0) n (%) | Trough concentration lower than the target range [20]: 12 (30.0) n (%)
SMILES: C=CC[C@@H]1/C=C(\C)C[C@H](C)C[C@H](OC)[C@H]2O[C@@](O)(C(=O)C(=O)N3CCCC[C@H]3C(=O)O[C@H](/C(C)=C/[C@@H]3CC[C@@H](O)[C@H](OC)C3)[C@H](C)[C@@H](O)CC1=O)[C@H](C)C[C@@H]2OC [Tacrolimus]
